Assay results from patent US9796673B2 (TEVA PHARMACEUTICALS INTERNATIONAL GMBH, priority 2014, dated 2017).
Counter-ions that a name gives are not always drawn.

How the values were obtained:
[1] = acid; cited from earlier work
[2] = 4 week, 40° C. and 75% RH
[3] = for pH: pH column of water solubility table (Table 2)
Protocol: Estimation of Water Solubility: A kinetic solubility experiment was performed. Powder samples were placed in glass vials and shaken for 20 minutes in water. […] The samples were then centrifuged to insure that no solids remained. The concentration of pridopidine in the supernatant was measured by HPLC and calculated based on a standard curve. […] Excess pridopidine was suspended in the solutions in glass vials and shaken for 72 hours at 25° C. The samples were then centrifuged and the pH of the supernatant was measured. The concentration of pridopdine in the supernatant was measured by HPLC and calculated based on a standard curve.

[4] = Dynamic vapor sorption (DVS) hygroscopicity; format: physicochemical; details: for Hygroscopicity 40% RH: Table 3, 40% RH; for Hygroscopicity 75% RH: Table 3, 75% RH; for Hygroscopicity 90% RH: Table 3, 90% RH
Protocol: DVS—Measurement of Dynamic Vapor Sorption: DVS experiments have been carried out using the DVS-HT instrument (Surface Measurement Systems, London, UK). This instrument measures the uptake and loss of vapor gravimetrically using a recording ultra-microbalance with a mass resolution of ±0.1 μg. The vapor partial pressure (±1.0%) around the sample is controlled by mixing saturated and dry carrier gas streams using electronic mass flow controllers. The desired temperature is maintained at ±0.1° C. […] The sample was loaded and unloaded at 40% RH and 25° C. (typical room conditions). A moisture sorption isotherm was performed as outlined below (2 scans giving 1 complete cycle). The software uses a least squares minimization procedure together with a model of the mass relaxation, to predict an asymptotic value. The measured mass equilibration value must be within 2% of that predicted by the software before proceeding to the next % RH value. The minimum equilibration time was set to 1 hour and the maximum to 4 hours.

[5] = WO 01/46145 salt; cited from earlier work

Compound	pKa1 [1]	Hygroscopicity 40% RH [4] [%]	Hygroscopicity 75% RH [4] [%]	Hygroscopicity 90% RH [4] [%]	other results
O=S(=O)(O)c1ccccc1 [Benzene sulfonic acid]	0.70				
pridopidine L-malate		0.1	0.2	17.2	chemical and physical stability [2]: acceptable; Water solubility, Conc. ([3]; kinetic, in water, shaken 20 minutes): 76 mg/mL; pH [3]: 3.9
pridopidine tosylate		0.02	0.1	0.2	XRPD pattern before and after the DVS test [4]: no change in XRPD pattern; DVS weight gain ([4]; 40% RH): 0.02%; DVS weight gain ([4]; 70% RH): 0.1%; DVS weight gain ([4]; 90% RH): 0.2%
CCCN1CCC(c2cccc(S(C)(=O)=O)c2)CC1 [Hydrochloride, pridopidine hydrochloride, reference compound]		0.1	0.45	7.3	pH [3]: 6.0; relative humidities at which non-hygroscopic [5]: below 86%; relative humidity in excess of which deliquescent [5]: > 86%
O=S(=O)(O)c1ccc2ccccc2c1 [Naphthalene 2-sulfonic acid]	0.17				
CCCN1CCC(c2cccc(S(C)(=O)=O)c2)CC1.CCCN1CCC(c2cccc(S(C)(=O)=O)c2)CC1.O=C(O)CCC(=O)O [Succinate (hemi), pridopidine succinate (hemi)]		3	40	70	Deliquescence during the DVS test [4]: deliquesced; DVS weight gain ([4]; 40% RH): 3%; DVS weight gain ([4]; 70% RH): 4%; DVS weight gain ([4]; 90% RH): 37%
O=C(O)CO [Glycolic acid]	3.28				
Br.CCCN1CCC(c2cccc(S(C)(=O)=O)c2)CC1 [HBr, reference compound]		0.04	0.08	0.12	
